In ChEMBL document CHEMBL4152292, “Rational design of carbamate-based dual binding site and central AChE inhibitors by a "biooxidisable" prodrug approach: Synthesis, in vitro evaluation and docking studies” (Eur J Med Chem, 2018):

Experiments:
Acetylcholinesterase [1] = biological target: T1, Acetylcholinesterase (Homo sapiens, UniProt P22303); assay: Inhibition of human erythrocytes AChE using acetylthiocholine iodide as substrate preincubated for 5 mins followed by substrate addition measured every min for 10 mins by Ellman's method
[2] = Apparent permeability from apical to basolateral side in human Caco2 cells assessed as drug recovery at 10 uM at pH 7.4 measured after 60 mins by HPLC-MS/MS method; format: ADME, cell-based; conditions: Caco-2, pH 7.4, read-out: Drug recovery
[3] = Apparent permeability from apical to basolateral side in human Caco2 cells at 10 uM at pH 7.4 measured after 60 mins by HPLC-MS/MS method; format: ADME, cell-based; conditions: Caco-2, pH 7.4
Acetylcholinesterase [4] = biological target: T2, Acetylcholinesterase (Bos taurus, UniProt P23795); assay: Inhibition of bovine erythrocytes AChE using acetylthiocholine iodide as substrate by Ellman's method
T2 sequence (P23795 whole entry): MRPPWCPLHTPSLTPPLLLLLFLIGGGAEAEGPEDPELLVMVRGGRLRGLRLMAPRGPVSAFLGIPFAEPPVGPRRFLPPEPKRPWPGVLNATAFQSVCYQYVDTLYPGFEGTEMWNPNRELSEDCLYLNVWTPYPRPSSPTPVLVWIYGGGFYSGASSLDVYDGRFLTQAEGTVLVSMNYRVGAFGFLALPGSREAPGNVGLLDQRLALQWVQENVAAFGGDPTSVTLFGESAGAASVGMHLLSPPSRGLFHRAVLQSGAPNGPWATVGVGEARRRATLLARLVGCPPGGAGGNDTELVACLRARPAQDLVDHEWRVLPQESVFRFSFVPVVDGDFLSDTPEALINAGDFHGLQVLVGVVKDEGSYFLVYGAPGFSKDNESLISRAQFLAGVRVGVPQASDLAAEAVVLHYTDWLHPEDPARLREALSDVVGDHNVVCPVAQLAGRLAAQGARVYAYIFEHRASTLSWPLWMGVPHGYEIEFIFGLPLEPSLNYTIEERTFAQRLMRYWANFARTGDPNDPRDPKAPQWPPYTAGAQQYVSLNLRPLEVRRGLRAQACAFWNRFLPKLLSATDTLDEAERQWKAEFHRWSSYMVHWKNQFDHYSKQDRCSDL

[5] = biological target: Amyloid-beta precursor protein (Homo sapiens) (UniProt P05067); assay: Inhibition of self-induced aggregation of amyloid beta (1 to 42 residues) (unknown origin) at 10 uM measured every 5 mins by Thioflavin T dye based fluorescence assay relative to control
Acetylcholinesterase [6] = biological target: T1, Acetylcholinesterase; assay: Displacement of propidium iodide from PAS of human AChE after 6 hrs by fluorescence assay
Acetylcholinesterase [7] = biological target: T1, Acetylcholinesterase; assay: Inhibition of human erythrocytes AChE at 10^-5 M using acetylthiocholine iodide as substrate preincubated for 5 mins followed by substrate addition measured every min for 10 mins by Ellman's method

T1 sequence (P22303 whole entry): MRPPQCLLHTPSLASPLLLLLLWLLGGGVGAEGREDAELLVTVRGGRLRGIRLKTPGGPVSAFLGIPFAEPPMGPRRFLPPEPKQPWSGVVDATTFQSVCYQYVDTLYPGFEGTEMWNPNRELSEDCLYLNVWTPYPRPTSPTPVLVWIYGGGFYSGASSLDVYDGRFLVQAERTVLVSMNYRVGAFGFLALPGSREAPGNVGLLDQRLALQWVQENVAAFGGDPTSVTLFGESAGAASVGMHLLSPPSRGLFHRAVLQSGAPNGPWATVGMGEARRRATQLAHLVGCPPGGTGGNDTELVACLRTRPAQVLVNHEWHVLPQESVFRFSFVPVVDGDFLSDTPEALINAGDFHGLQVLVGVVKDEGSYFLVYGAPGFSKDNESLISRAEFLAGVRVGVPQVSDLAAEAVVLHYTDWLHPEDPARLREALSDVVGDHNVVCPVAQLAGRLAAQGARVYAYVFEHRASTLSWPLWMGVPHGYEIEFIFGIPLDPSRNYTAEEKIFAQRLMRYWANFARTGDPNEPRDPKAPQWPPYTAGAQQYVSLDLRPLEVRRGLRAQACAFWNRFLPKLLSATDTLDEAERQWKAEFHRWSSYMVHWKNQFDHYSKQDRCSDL
Amyloid-beta precursor protein (Homo sapiens), sequence (P05067 whole entry, the tested form may be a part): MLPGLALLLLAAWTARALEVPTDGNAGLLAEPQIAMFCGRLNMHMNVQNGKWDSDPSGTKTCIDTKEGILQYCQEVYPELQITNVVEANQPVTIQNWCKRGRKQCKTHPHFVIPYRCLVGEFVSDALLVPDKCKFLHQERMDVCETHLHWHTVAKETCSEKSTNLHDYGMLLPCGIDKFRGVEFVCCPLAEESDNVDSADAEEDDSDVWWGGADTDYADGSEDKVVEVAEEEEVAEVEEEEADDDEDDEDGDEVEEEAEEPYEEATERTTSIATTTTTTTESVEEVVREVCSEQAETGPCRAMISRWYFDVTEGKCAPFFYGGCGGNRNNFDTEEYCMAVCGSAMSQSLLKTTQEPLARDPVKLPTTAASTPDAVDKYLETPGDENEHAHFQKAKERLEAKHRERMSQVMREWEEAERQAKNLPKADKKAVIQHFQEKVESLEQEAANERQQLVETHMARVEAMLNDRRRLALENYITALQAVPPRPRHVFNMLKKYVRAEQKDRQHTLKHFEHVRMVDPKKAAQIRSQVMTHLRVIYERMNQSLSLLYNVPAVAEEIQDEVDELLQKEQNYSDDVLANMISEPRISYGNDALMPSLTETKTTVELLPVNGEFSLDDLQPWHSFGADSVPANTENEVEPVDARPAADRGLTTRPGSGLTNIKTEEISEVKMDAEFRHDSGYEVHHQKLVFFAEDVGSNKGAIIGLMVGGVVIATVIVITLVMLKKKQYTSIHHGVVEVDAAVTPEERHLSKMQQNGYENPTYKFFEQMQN

Row | SMILES | IC50 (Acetylcholinesterase [1]) [nM] | further results
1 | CC[n+]1cc(C(=O)NC)cc2c(OC(=O)N(C)C)cccc21 | 314 | –
2 | CN(C)C(=O)Oc1cccc2c1cc(C(=O)Nc1ccccc1)c[n+]2C | 30 | –
3 | CN(C)C(=O)Oc1cccc2c1CC(C(=O)NCCOCCOCCN1C(=O)c3ccccc3C1=O)=CN2C | > 10000 | recovery at 1 h, 10 µM [2]: 91%; Papp A→B at 1 h, 10 µM [3]: 11.1 ×10⁻⁶ cm/s
4 | CN(C)C(=O)Oc1cccc2c1cc(C(=O)NCCOCCOCCN1C(=O)c3ccccc3C1=O)c[n+]2C | 6 | IC50 (Acetylcholinesterase [4]): 6 nM; inhibition [5]: 14%; Activity (Acetylcholinesterase [6]): 20%
5 | CNC(=O)c1cc2c(OC(=O)N(C)C)cccc2[n+](C)c1 | 77 | –
6 | CNC(=O)c1cc2c(OC(=O)N(C)C)cccc2[n+](Cc2ccccc2)c1 | 1160 | –
7 | CN(C)C(=O)Oc1cccc2c1cc(C(=O)NCCOCCO)c[n+]2C | 37 | –
8 | CC(C)NC(=O)c1cc2c(OC(=O)N3CCCC3)cccc2[n+](C)c1 | > 10000 | –
9 | Cc1c(C(=O)N(C)C)cc2c(OC(=O)N(C)C)cccc2[n+]1C | > 10000 | –
10 | C[n+]1cc(C(=O)NCCOCCOCCN2C(=O)c3ccccc3C2=O)cc2c(O)cccc21 | > 10000 | inhibition (Acetylcholinesterase [7]): 35%
11 | CN(C)C(=O)Oc1cccc2c1cc(C(=O)NC1CCCCC1)c[n+]2C | 20 | –
12 | CN(C)C(=O)Oc1cccc2c1cc(C(=O)N(C)C)c[n+]2C | 154 | –
13 | CC(C)NC(=O)c1cc2c(OC(=O)N(C)C)cccc2[n+](C)c1 | 58 | –
14 | COC(=O)CNC(=O)c1cc2c(OC(=O)N(C)C)cccc2[n+](C)c1 | 93 | –
15 | Cc1c(C(=O)N(C)C)c(C)[n+](C)c2cccc(OC(=O)N(C)C)c12 | > 10000 | –
16 | CCN(C)C(=O)Oc1cccc2c1cc(C(=O)NC(C)C)c[n+]2C | > 10000 | –
17 | COCCNC(=O)c1cc2c(OC(=O)N(C)C)cccc2[n+](C)c1 | 20 | –
18 | Cc1c(C(=O)N(C)C)c[n+](C)c2cccc(OC(=O)N(C)C)c12 | > 10000 | –
